From patent publication US8853257B2, “Succinimide derivatives as ocular hypotensive agents” (priority 2005, dated 2014)
Where “and” joins values, the source holds several entries; their conditions need not be identical. Identical values can stand only once.

Key:
[1] = tested on: normo-tensive New Zealand White (NZW) rabbits; experiment: Effect of topical ethosuximide on intraocular pressure in rabbits (Tono-Pen); type: in vivo; settings: for IOP, treated eye (T), individual rabbits: one value per rabbit
Procedure: Another study was conducted, in order to study the effect of ethosuximide on the intraocular pressure in rabbits by measuring IOP before and after administration of ethosuximide. IOP measurements were taken by a tonopen instrument. Ethosuximide was applied as a viscous solution obtained from Petnidan® capsules (Desitin, Hamburg, Germany).
Five fully awake, normo-tensive New Zealand White (NZW) rabbits, (each approximately 3.0 kg in weight) were used in this study. One eye of each rabbit was randomly selected to receive topical administration of 50 μl of 250 mg/0.2 ml ethosuximide solution (content of Petnidan capsules). The second (control) eye received 50 μl of viscoelastic solution without the active ingredient (Viscotears™ manufactured by Novartis, Switzerland). At t=0 (baseline, immediately before) and at 0.5, 1, 2, 4 and 6 hours after administration, topical anesthetic benoxinate was applied to both eyes and the intraocular pressures were measured by a Tono-Pen XL tonometer (Medtronics). IOP values were recorded as the mean value of 6-10 successive measurements to minimize variability. The code, namely which eye of a pair was treated, was (unknown to the technician who performed the IOP measurements. In 3 out of 5 eyes that received the drug (vs. 1 of 5 eyes that were administered viscoelastic vehicle) a mild to moderate limbal vascular congestion was noticed, which tended to subside at 60 minutes. In one treated eye the congestion persisted for two hours. At the end of the experiment, the code was broken and the IOP values in control and treated eyes were compared. The results are summarized in Table 2.

[2] = tested on: Dark Agauti (DA) pigmented rats; experiment: Effect of topical ethosuximide on intraocular pressure in rats (Tono-Pen); type: in vivo; settings: for IOP, treated eye (T), individual rats: one value per rat; for IOP, treated eye (T), Average X: rats
Procedure: Preliminary ocular pharmacodynamic studies were conducted to study the effect of ethosuximide on the intraocular pressure in rats by measuring IOP before and after administration of ethosuximide. IOP measurements were taken by a tonopen instrument. Ethosuximide was applied as a viscous solution obtained from Petnidan® capsules (Desitin, Hamburg, Germany). A recent study at Alcon Research laboratory (Pang I H, Wang W H, Clark A F: Acute effects of glaucoma medications on rat intraocular pressure, Exp Eye Res 2005, February; 80(2)207-14) has shown rats to be a proper animal model for glaucoma study. Another study at the Casey Eye Institute (Moore C G, Milne S T, Morrison J C: Noninvasive measurements of rat intraocular pressure with the Tono-Pen. Invest. Opthalmol. Vis. Sci. 1993 February; 34(2)363-9) has shown that a tonopen can be used reliably to measure IOP in normal rat eye.
Six Dark Agauti (DA) pigmented rats, (250-300 g in weight) were slightly sedated with 1.5-2 mg (0.15-0.2 ml) of intraperitoneal xylazine. One eye of each rat was randomly selected to receive topical administration of 50 µl of 250 mg/0.2 ml ethosuximide solution (content of Petnidan capsules). The second (control) eye received 50 µl of viscoelastic solution without the active ingredient (Viscotears™ manufactured by Novartis, Switzerland). At t=0 (immediately before) and at 30, 60 and 120 minutes after administration, topical anesthetic benoxinate was applied to both eyes and the intraocular pressures (IOP) were measured by a Tono-Pen XL tonometer (Medtronics). IOP values were recorded as the mean value of 6-10 successive measurements to minimize variability. The code, namely which eye of a pair was treated, was unknown to the technician who performed the IOP measurements. One rat expired after 1 hour due to excessive sedation. Five rats completed the experiment. In 2 out of 6 eyes that received the drug (vs. 1 of 6 eyes that were administered viscoelastic vehicle) a mild to moderate limbal vascular congestion was noticed, which tended to subside at 60 minutes.
At the end of the experiment, the code was broken and the IOP values in control and treated eyes were compared by statistical analysis.

[3] = 60 min after topical administration
[4] = 120 min after topical administration

For `CCC1(C)CC(=O)NC1=O` (centres unmarked) [ethosuximide], the “IOP, treated eye (T), individual rabbits” value ([1]; 0.5 hour after topical 50 μl of 250 mg/0.2 ml ethosuximide solution) was 17.3 mmHg and 18.3 mmHg and 16.3 mmHg and 19.7 mmHg and 20.0 mmHg, the “IOP, treated eye (T), Mean” value ([1]; 0.5 hour, rabbits) was 18.3 mmHg and the “IOP, treated eye (T), individual rabbits” value ([1]; 1 hour after topical administration) was 12.8 mmHg and 16.0 mmHg and 15.0 mmHg and 19.7 mmHg and 18.5 mmHg. The “Δ IOP, difference in mean IOP (T − C)” value ([1]; 1 hour, p .557) was −0.6 mmHg, the “IOP, treated eye (T), Mean” value ([1]; 1 hour, rabbits) was 16.0 mmHg and the “IOP, treated eye (T), individual rabbits” value ([1]; 2 hours after topical administration) was 17.3 mmHg and 20.0 mmHg and 19.6 mmHg and 16.3 mmHg and 19.8 mmHg. The “Δ IOP vs t = o, mean IOP of treated eyes” value ([1]; 2 hours versus baseline, p .420) was −1.4 mmHg, the “IOP, treated eye (T), Mean” value ([1]; 2 hours, rabbits) was 18.6 mmHg and the “IOP, treated eye (T), individual rabbits” value ([1]; 4 hours after topical administration) was 15.5 mmHg and 15.8 mmHg and 13.0 mmHg and 12.5 mmHg and 17.5 mmHg. For the same compound, the “IOP, treated eye (T), Mean” value ([1]; 4 hours, rabbits) was 14.9 mmHg, the “IOP, treated eye (T), individual rabbits” value ([1]; 6 hours after topical administration) was 19.5 mmHg and 20.0 mmHg and 13.5 mmHg and 19.4 mmHg and 16.0 mmHg and the “Δ IOP vs t = o, mean IOP of treated eyes” value ([1]; 6 hours versus baseline, p .404) was −2.3 mmHg. For the same compound, the “Δ IOP, difference in mean IOP (T − C)” value ([1]; 6 hours, p .920) was “+0.1 mmHg”, the “IOP, treated eye (T), Mean” value ([1]; 6 hours, rabbits) was 17.7 mmHg and the “eyes with mild to moderate limbal vascular congestion” value ([1]; rabbit eyes that received the drug (vs. 1 of 5 vehicle eyes), tended to subside at 60 minutes) was 3 out of 5. The “treated eyes in which the congestion persisted for two hours” value ([1]; rabbits) was “one”, the “IOP, treated eye (T), individual rats” value ([2]; 30 min after topical 50 ul of 250 mg/0.2 ml ethosuximide solution) was 17 mmHg and 16 mmHg and 15 mmHg and 15.3 mmHg and 20.5 mmHg and 22 mmHg and the “IOP, treated eye (T), Average X” value ([2]; 30 min after topical administration) was 17.6 mmHg. For the same compound, the “IOP, treated eye (T), individual rats” value [2, 3] was 21.3 mmHg (2×) and 30 mmHg and 18 mmHg and 14.6 mmHg, the “IOP, treated eye (T), Average X” value [2, 3] was 21.0 mmHg and the “IOP, treated eye (T), individual rats” value [2, 4] was 22 mmHg and 17 mmHg and 19 mmHg and 20.5 mmHg and 20.2 mmHg. The “IOP, treated eye (T), Average X” value [2, 4] was 19.7 mmHg and the “eyes with mild to moderate limbal vascular congestion” value ([2]; rat eyes that received the drug (vs. 1 of 6 vehicle eyes), tended to subside at 60 minutes) was 2 out of 6.
